What was measured:
CDK2/Cyclin E1 = CDK2/Cyclin E1 (Homo sapiens, UniProt P24941); assay: ADP-Glo Luminescent Kinase Assay (CDK2/E1-37C); assay type: biochemical; settings: 0.18 nM CDK2/Cyclin E1, 100 μM ATP, 1.5 μM Histone H1, 37° C., 60 min pre-incubation; read-out: ADPGLO (CDK2/E1-37C): IC50
In short: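 Human CDK2/Cyclin E1 preincubated with inhibitor 60 min at 37 °C, then reacted 90 min at 37 °C with final 0.18 nM enzyme, 100 μM ATP, 1.5 μM Histone H1 in HEPES pH 7.5 buffer. ADP formed read by ADP-Glo luminescence; IC50 from four-parameter fit.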

Kuramochi cells = assay: IncuCyte cell proliferation assay; assay type: cell-based; settings: Kuramochi cells labeled with mApple-H2B, cell count 0 to 72 hours, 20 μM top concentration; read-out: IncuCyte Kuramochi RB-WT: IC50
In short: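 Kuramochi cells expressing mApple-H2B were treated with a 10-point, ½-log dilution series (top 20 μM). Fluorescent nuclei were counted by IncuCyte imaging at 0 and 72 h. The fold change in cell count was normalized to DMSO wells and fitted to dose-response curves to give […].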

Compound | IC50 (CDK2/Cyclin E1) | IC50 (Kuramochi cells)
C[C@@H](OCC12CCC(CC1)OC2)[C@H](NC(=O)[C@@H]1CN(C(=O)c2cnn(Cc3ccc(C(F)(F)F)cc3C(=O)O)c2)CC12CN(C(=O)C1(C(F)(F)F)CC1)C2)C(=O)N1CCC(c2nccs2)CC1 [Example I-83, ((4-((S)-8-(((2S,3R)-3-((2-oxabicyclo[2.2.2]octan-4-yl)methoxy)-1-oxo-1-(4-(thiazol-2-yl)piperidin-1-yl)butan-2-yl)carbamoyl)-2-(1-(trifluoromethyl)cyclopropane-1-carbonyl)-2,6-diazaspiro[3.4]octane-6-carbonyl)-1H-pyrazol-1-yl)methyl)-5-(trifluoromethyl)benzoic acid] | < 0.5 µM | > 20 µM
COC(=O)CCNC(=O)[C@@H](NC(=O)[C@@H]1CN(C(=O)c2cnn(Cc3ccc(C(F)(F)F)cc3)c2)CC12CN(C(=O)C1(C(F)(F)F)CC1)C2)[C@@H](C)OCC12CCC(CC1)OC2 [Example I-84] | 0.5 to 5 µM | < 0.5 µM
C[C@@H](OCC12CCC(CC1)OC2)[C@H](NC(=O)[C@@H]1CN(C(=O)c2cnn(Cc3ccc(C(F)(F)F)cc3)c2)CC12CN(C(=O)C1(C(F)(F)F)CC1)C2)C(=O)NS(=O)(=O)c1ccc(F)cc1 [Example I-85, (S)—N-((2S,3R)-3-((2-oxabicyclo[2.2.2]octan-4-yl)methoxy)-1-((4-fluorophenyl)sulfonamido)-1-oxobutan-2-yl)-6-(1-(4-(trifluoromethyl)benzyl)-1H-pyrazole-4-carbonyl)-2-(1-(trifluoromethyl)cyclopropane-1-carbonyl)-2,6-diazaspiro[3.4]octane-8-carboxamide] | < 0.5 µM | > 20 µM
C[C@@H](OCC12CCC(CC1)OC2)[C@@H](COC1CCC(c2ccc(C(=O)O)cc2)CC1)NC(=O)[C@@H]1CN(C(=O)c2cnn(Cc3ccc(C(F)(F)F)cc3)c2)CC12CN(C(=O)C1(C(F)(F)F)CC1)C2 (stereo partly drawn) [Example I-86, 4-(4-((2R,3R)-3-(2-oxabicyclo[2.2.2]octan-4-ylmethoxy)-2-((S)-6-(1-(4-(trifluoromethyl)benzyl)-1H-pyrazole-4-carbonyl)-2-(1-(trifluoromethyl)cyclopropanecarbonyl)-2,6-diazaspiro[3.4]octane-8-carboxamido)butoxy)cyclohexyl)benzoic acid] | 0.5 to 5 µM | > 20 µM
C[C@@H](OCC12CCC(CC1)OC2)[C@H](NC(=O)[C@@H]1CN(C(=O)c2cnn(Cc3ccccc3)c2)CC12CN(C(=O)C1(C(F)(F)F)CC1)C2)C(=O)N1CCN(c2ccc(C(=O)O)cc2)CC1 [Example I-87, 4-(4-(O-((2-oxabicyclo[2.2.2]octan-4-yl)methyl)-N—((S)-6-(1-benzyl-1H-pyrazole-4-carbonyl)-2-(1-(trifluoromethyl)cyclopropane-1-carbonyl)-2,6-diazaspiro[3.4]octane-8-carbonyl)-L-threonyl)piperazin-1-yl)benzoic acid] | < 0.5 µM | 5 to 20 µM
C[C@@H](OCC12CCC(CC1)OC2)[C@H](NC(=O)[C@@H]1CN(C(=O)c2cnn(Cc3ccccc3C(=O)O)c2)CC12CN(C(=O)C1(C(F)(F)F)CC1)C2)C(=O)N1CCC(c2nccs2)CC1 [Example I-88, 2-((4-((S)-8-(((2S,3R)-3-(2-oxabicyclo[2.2.2]octan-4-ylmethoxy)-1-oxo-1-(4-(thiazol-2-yl)piperidin-1-yl)butan-2-yl)carbamoyl)-2-(1-(trifluoromethyl)cyclopropanecarbonyl)-2,6-diazaspiro[3.4]octane-6-carbonyl)-1H-pyrazol-1-yl)methyl)benzoic acid] | < 0.5 µM | > 20 µM
C[C@@H](OCC12CCC(CC1)OC2)[C@H](NC(=O)[C@@H]1CN(C(=O)c2cnc(O)cn2)CC12CN(C(=O)C1CC1(C)C)C2)C(=O)N1CCC(c2ccc(C(F)(F)F)c(C(=O)O)c2)CC1 (stereo partly drawn) [Example I-90, 5-(1-(O-((2-oxabicyclo[2.2.2]octan-4-yl)methyl)-n-((s)-2-((s)-2,2-dimethylcyclopropane-1-carbonyl)-6-(5-hydroxypyrazine-2-carbonyl)-2,6-diazaspiro[3.4]octane-8-carbonyl)-L-threonyl)piperidin-4-yl)-2-(trifluoromethyl)benzoic acid] | < 0.5 µM | > 20 µM
C[C@@H](OCC12CCC(CC1)OC2)[C@H](NC(=O)[C@@H]1CN(C(=O)c2cnn(Cc3ccc(C(F)(F)F)cc3)c2)CC12CN(C(=O)C1(C(F)(F)F)CC1)C2)C(=O)N1CCC(c2nccs2)CC1 [Example I-91, (S)—N-((2S,3R)-3-(2-oxabicyclo[2.2.2]octan-4-ylmethoxy)-1-oxo-1-(4-(thiazol-2-yl)piperidin-1-yl)butan-2-yl)-6-(1-(4-(trifluoromethyl)benzyl)-1H-pyrazole-4-carbonyl)-2-(1-(trifluoromethyl)cyclopropanecarbonyl)-2,6-diazaspiro[3.4]octane-8-carboxamide] | < 0.5 µM | 0.5 to 5 µM
C[C@@H](OCC12CCC(CC1)OC2)[C@H](NC(=O)[C@@H]1CN(C(=O)c2cnn(Cc3ccc(C(F)(F)F)cc3)c2)CC12CN(C(=O)C1(C(F)(F)F)CC1)C2)C(=O)N1CCC(c2ccc(C(=O)O)nc2)CC1 [Example I-92, 5-(1-(O-((2-oxabicyclo[2.2.2]octan-4-yl)methyl)-N—((S)-6-(1-(4-(trifluoromethyl)benzyl)-1H-pyrazole-4-carbonyl)-2-(1-(trifluoromethyl)cyclopropane-1-carbonyl)-2,6-diazaspiro[3.4]octane-8-carbonyl)-L-threonyl)piperidin-4-yl)picolinic acid] | < 0.5 µM | > 20 µM
C[C@@H](OCC12CCC(CC1)OC2)[C@H](NC(=O)[C@@H]1CN(C(=O)c2cnn(Cc3ccc(C(F)(F)F)cc3)c2)CC12CN(C(=O)C1(C(F)(F)F)CC1)C2)C(=O)N1CCC(c2cc(F)c(C(=O)O)c(F)c2)CC1 [Example I-94] | < 0.5 µM | > 20 µM
C[C@@H](OCC12CCC(CC1)OC2)[C@H](NC(=O)[C@@H]1CN(C(=O)c2cnn(Cc3ccccc3C(=O)O)c2)CC12CN(C(=O)[C@H]1CC1(C)C)C2)C(=O)N1CCC2(CCNCC2)CC1 [Example I-96] | < 0.5 µM | > 20 µM

Further lines, with some results ahead:

IC50 (CDK2/Cyclin E1) | Compound | IC50 (Kuramochi cells)
> 10 µM | COC(=O)C(C)(C)Oc1ccc(C2CCN(C(=O)[C@@H](NC(=O)[C@@H]3CN(C(=O)c4cnn(Cc5ccc(C(F)(F)F)cc5)c4)CC34CN(C(=O)C3(C(F)(F)F)CC3)C4)[C@@H](C)OCC34CCC(CC3)OC4)CC2)cc1C(F)(F)F [Example I-98] | > 20 µM
< 0.5 µM | C[C@@H](OCC12CCC(CC1)OC2)[C@H](NC(=O)[C@@H]1CN(C(=O)c2cnn(Cc3ccc(C(F)(F)F)cc3)c2)CC12CN(C(=O)C1(C(F)(F)F)CC1)C2)C(=O)N1CCC(c2ccc(C(=O)O)cc2)CC1 [Example I-99] | > 20 µM
< 0.5 µM | C[C@@H](OCC12CCC(CC1)OC2)[C@H](NC(=O)[C@@H]1CN(C(=O)c2cnn(Cc3ccc(C(F)(F)F)cc3)c2)CC12CN(C(=O)C1(C(F)(F)F)CC1)C2)C(=O)N1CCC(c2nnn[nH]2)CC1 [Example I-100] | > 20 µM
0.5 to 5 µM | C[C@@H](OCC12CCC(CC1)OC2)[C@H](NC(=O)[C@@H]1CN(C(=O)c2cnn(CC3CCNCC3)c2)CC12CN(C(=O)C1(C(F)(F)F)CC1)C2)C(=O)N1CCC(c2ccccc2C(=O)O)CC1 [Example I-101] | > 20 µM
< 0.5 µM | C[C@@H](OCC12CCC(CC1)OC2)[C@H](NC(=O)[C@@H]1CN(C(=O)c2cnn(Cc3ccccc3C(=O)OC(C)(C)C)c2)CC12CN(C(=O)C1(C(F)(F)F)CC1)C2)C(=O)NCCC1CCN(C(=O)OC(C)(C)C)CC1 [Example I-103] | 0.5 to 5 µM
< 0.5 µM | Cc1cc(C2CCN(C(=O)[C@@H](NC(=O)[C@@H]3CN(C(=O)c4cnn(Cc5ccc(C(F)(F)F)cc5)c4)CC34CN(C(=O)C3(C(F)(F)F)CC3)C4)[C@@H](C)OCC34CCC(CC3)OC4)CC2)cc(C(F)(F)F)c1OCC(=O)O [Example I-104] | > 20 µM
0.5 to 5 µM | C[C@@H](OCC12CCC(CC1)OC2)[C@@H](COC1CCC(c2nccs2)CC1)NC(=O)[C@@H]1CN(C(=O)c2cnn(Cc3ccc(C(F)(F)F)cc3)c2)CC12CN(C(=O)C1(C(F)(F)F)CC1)C2 (stereo partly drawn) [Example I-107, (S)—N-((2R,3R)-3-(2-oxabicyclo[2.2.2]octan-4-ylmethoxy)-1-((4-(thiazol-2-yl)cyclohexyl)oxy)butan-2-yl)-6-(1-(4-(trifluoromethyl)benzyl)-1H-pyrazole-4-carbonyl)-2-(1-(trifluoromethyl)cyclopropanecarbonyl)-2,6-diazaspiro[3.4]octane-8-carboxamide] | 5 to 20 µM
< 0.5 µM | C[C@@H](OCC12CCC(CC1)OC2)[C@H](NC(=O)[C@@H]1CN(C(=O)c2cnn(Cc3ccccc3C(=O)OC(C)(C)C)c2)CC12CN(C(=O)C1(C(F)(F)F)CC1)C2)C(=O)N1CCN(C(=O)OC(C)(C)C)CC1 [Example I-108] | 0.5 to 5 µM
< 0.5 µM | C[C@@H](OCC12CCC(CC1)OC2)[C@H](NC(=O)[C@@H]1CN(C(=O)c2cnn(Cc3ccccc3C(=O)O)c2)CC12CN(C(=O)C1(C(F)(F)F)CC1)C2)C(=O)N1CCNCC1 [Example I-109] | > 20 µM
0.5 to 5 µM | COC(=O)CCNC(=O)[C@@H](NC(=O)[C@@H]1CN(C(=O)c2cnn(Cc3ccc(F)cc3C(F)(F)F)c2)CC12CN(C(=O)C1(C(F)(F)F)CC1)C2)[C@@H](C)OCC12CCC(CC1)OC2 [Example I-110, Methyl 3-((2S,3R)-3-((2-oxabicyclo[2.2.2]octan-4-yl)methoxy)-2-((S)-6-(1-(4-fluoro-2-(trifluoromethyl)benzyl)-1H-pyrazole-4-carbonyl)-2-(1-(trifluoromethyl)cyclopropane-1-carbonyl)-2,6-diazaspiro[3.4]octane-8-carboxamido)butanamido)propanoate] | > 20 µM
